Assay results as given in patent publication US6630431B2, “Nail polish lacquer remover” (Board of Trustees of Michigan State University, priority 2001, dated 2003).

Key:
[1] = Vapor pressure; type: physicochemical; conditions: @ 20° C.
Description: The vapor pressure of ethyl lactate is 1.6 mmHg @ 20° C. and for diethyl succinate is 0.2 mmHg @ 20° C. These are very favorable for a nail polish removing lacquer.

[2] = animals; cited from earlier work

| Compound | vapor pressure [1] | LD50 data [2] |
| --- | --- | --- |
| CCOC(=O)C(C)O (stereo not shown) [ethyl lactate] | 1.6 mmHg | very large doses are required to produce toxic results |
| CCOC(=O)CCC(=O)OCC [diethyl succinate] | 0.2 mmHg | very large doses are required to produce toxic results |
